Experimental data taken from patent publication US20100184684A1, “ANTIBACTERIAL AND ANTIFUNGAL PEPTIDES” (C3 JIAN, INC., priority 2009, published 2010).
In brackets after ≈: the same amount, converted by molar mass. Where two headings read alike, the source gives them in different places. Peptide text beside a SMILES is read from it.

Columns and labels:
[1] = tested on: B. subtilis; format: cell-based, Bacillus subtilis
Description: (§1) In certain embodiments the MIC assays are performed as described herein in the Examples. For each organism, the media and growth conditions utilized is detailed in Table 8.
(§2) In certain embodiments the MIC assays are performed as follows: For each organism, the media and growth conditions utilized is detailed in Table 8.

[2] = tested on: T. rubrum; format: cell-based, Trichophyton rubrum
Description: as §1, §2

[3] = tested on: P. aeruginosa; format: cell-based, Pseudomonas aeruginosa
Description: as §1, §2

[4] = tested on: S. epidermidis; format: cell-based
Description: as §1, §2

[5] = tested on: C. jeikeium; format: cell-based, Corynebacterium jeikium
Description: as §1, §2

[6] = tested on: S. mutans; format: cell-based, Streptococcus mutans
Description: as §1, §2

[7] = tested on: A. niger; format: cell-based, Aspergillus niger
Description: as §1, §2

[8] = tested on: C. difficile; format: cell-based, Clostridium difficile
Description: as §1, §2

[9] = tested on: A. baumannii; format: cell-based, Acinetobacter baumannii
Description: as §1, §2

[10] = tested on: P. gingivalis; format: cell-based, Porphyromonas gingivalis
Description: as §1, §2

[11] = tested on: F. nucleatum; format: cell-based, Fusobacterium nucleatum
Description: as §1, §2

[12] = tested on: A. naeslundii; format: cell-based, Actinomyces naeslundii
Description: as §1, §2

[13] = tested on: M. furfur; assay: MIC assay; format: cell-based, Malassezia furfur; details: ATCC medium 1072, 37° C., aerobic, 10^5 CFU/ml
Description: as §1, §2

[14] = tested on: MRSA; format: cell-based, Staphylococcus aureus; details: MRSA; BHI supplemented with 2% glucose, 37° C., aerobic, 10^5 CFU/ml
Description: as §1, §2

| SMILES | MIC [1] | MIC [2] | MIC [3] | MIC [4] | MIC [5] | MIC [6] | MIC [7] | MIC [8] | MIC [9] | MIC [10] | MIC [11] | MIC [12] | MIC [13] | MIC ([10]; P. gingivalis, Columbia broth, 37° C., anaerobic, 10^5 CFU/ml) | MIC [14] | MIC ([2]; T. rubrum, Potato Dextrose Agar, 25° C., aerobic, 10^5 CFU/ml) | MIC ([3]; P. aeruginosa, MH, 37° C., aerobic, 10^5 CFU/ml) | MIC ([4]; S. epidermidis, BHI supplemented with 0.25% glucose, 37° C., aerobic, 10^5 CFU/ml) | MIC ([6]; S. mutans, TH supplemented with 1% sucrose, 37° C., anaerobic, 10^5 CFU/ml) |
| --- | --- | --- | --- | --- | --- | --- | --- | --- | --- | --- | --- | --- | --- | --- | --- | --- | --- | --- | --- |
| CC[C@H](C)[C@H](NC(=O)[C@H](CCCCN)NC(=O)[C@@H](NC(=O)[C@H](CCCCN)NC(=O)[C@H](CCCCN)NC(=O)[C@@H](NC(=O)[C@H](CCCCN)NC(=O)[C@@H]1CCCN1C(=O)[C@H](CCCNC(=N)N)NC(=O)[C@@H]1CCCN1C(=O)[C@H](CCC(N)=O)NC(=O)[C@H](CCC(N)=O)NC(=O)[C@H](CC(N)=O)NC(=O)[C@H](CC(C)C)NC(=O)[C@H](Cc1c[nH]cn1)NC(=O)[C@H](Cc1ccccc1)NC(=O)[C@H](CCC(N)=O)NC(=O)[C@@H](NC(=O)[C@@H](N)Cc1ccc(O)cc1)[C@@H](C)CC)C(C)C)[C@@H](C)CC)C(=O)N[C@@H](Cc1ccccc1)C(=O)N[C@@H](CC(C)C)C(=O)O [PF-531] (H-YIQFHLNQQPRPKVKKIKIFL-OH; N-terminus and C-terminus assumed) | 25 µM (≈ 66 µg/mL) | 50 µM (≈ 132 µg/mL) | 50 µM (≈ 132 µg/mL) | 50 µM (≈ 132 µg/mL) | 6.25 µM (≈ 16.5 µg/mL) | 12.5 µM (≈ 33 µg/mL) | 25 µM (≈ 66 µg/mL) | 12.5 µM (≈ 33 µg/mL) | 25 µM (≈ 66 µg/mL) |  |  |  |  |  |  |  |  |  |  |
| CC[C@H](C)[C@H](NC(=O)[C@H](CCC(N)=O)NC(=O)[C@H](CCCCN)NC(=O)[C@H](CC(C)C)NC(=O)[C@H](CC(C)C)NC(=O)[C@@H]1CCCN1C(=O)[C@H](CCSC)NC(=O)[C@H](CC(C)C)NC(=O)[C@H](CO)NC(=O)[C@H](CCCCN)NC(=O)CNC(=O)[C@@H](N)CCCCN)C(=O)N[C@@H](CC(N)=O)C(=O)N[C@@H](CCC(N)=O)C(=O)N[C@@H](Cc1c[nH]c2ccccc12)C(=O)NCC(=O)N[C@@H](CCCCN)C(=O)N[C@@H](CC(C)C)C(=O)N[C@@H](Cc1ccc(O)cc1)C(=O)N[C@@H](CC(C)C)C(=O)O [PF-C239] (H-KGKSLMPLLKQINQWGKLYL-OH; N-terminus and C-terminus assumed) |  |  |  |  |  | 50 µM (≈ 118 µg/mL) |  |  |  | 50 µM (≈ 118 µg/mL) | 50 µM (≈ 118 µg/mL) | 25 µM (≈ 59 µg/mL) |  |  |  |  |  |  |  |
| CC[C@H](C)[C@H](NC(=O)[C@@H](NC(=O)[C@H](CO)NC(=O)CN)C(C)C)C(=O)N[C@@H](CCCCN)C(=O)N[C@@H](CCCCN)C(=O)N[C@@H](CCCNC(=N)N)C(=O)N[C@@H](CCCNC(=N)N)C(=O)N[C@@H](CCCCN)C(=O)N[C@@H](CCCNC(=N)N)C(=O)N[C@@H](CCSC)C(=O)N[C@@H](CO)C(=O)N[C@@H](CCCCN)C(=O)N[C@@H](CCCCN)C(=O)N[C@@H](CCCCN)C(=O)N[C@@H](Cc1c[nH]cn1)C(=O)N[C@@H](CCCNC(=N)N)C(=O)N[C@@H](CCCCN)C(=O)N[C@@H](CCSC)C(=O)N[C@@H](CC(C)C)C(=O)N[C@@H](CCCNC(=N)N)C(=O)N[C@@H](CCCNC(=N)N)C(=O)N[C@H](C(=O)N[C@@H](CCCNC(=N)N)C(=O)N[C@H](C(=O)N[C@@H](CCC(N)=O)C(=O)N[C@@H](CCCNC(=N)N)C(=O)N[C@@H](CCCNC(=N)N)C(=O)N[C@@H](CCCCN)C(=O)N[C@@H](CC(C)C)C(=O)NCC(=O)N[C@@H](CCCCN)C(=O)O)C(C)C)[C@@H](C)O [PF-S028] |  |  |  |  |  |  |  |  |  |  |  |  | 2.5 µM (≈ 10.1 µg/mL) | 25 µM (≈ 101 µg/mL) | 50 µM (≈ 202 µg/mL) | 50 µM (≈ 202 µg/mL) | 50 µM (≈ 202 µg/mL) | 25 µM (≈ 101 µg/mL) | 50 µM (≈ 202 µg/mL) |
